{"source": "ChEMBL document CHEMBL4627256", "about": "“N-(3,5-Dichloro-4-(2,4,6-trichlorophenoxy)phenyl)benzenesulfonamide: A new dual-target inhibitor of mitochondrial complex II and complex III via structural simplification” (Bioorg Med Chem, 2020)", "key": {"[1]": {"assay": "Inhibition of porcine succinate-cytochrome c reductase using succinate and cytochrome c as substrates by spectrophotometric based assay", "parameters": "species or system Sus scrofa"}, "[2]": {"assay": "Inhibition of porcine succinate-ubiquinone oxidoreductase using succinate and 2,6-dichloroindophenol as substrates by spectrophotometric based assay", "parameters": "species or system Sus scrofa"}, "[3]": {"species_on_record": "Sus scrofa", "assay": "Inhibition of porcine cytochrome b-c1 complex at 10 uM using DBH2 and cytochrome c as substrates by spectrophotometric based assay relative to control"}, "[4]": {"species_on_record": "Sus scrofa", "assay": "Inhibition of porcine heart succinate-cytochrome c reductase at 10 uM using succinate and cytochrome c as substrates by spectrophotometric based assay relative to control"}, "[5]": {"assay": "Inhibition of porcine cytochrome b-c1 complex using DBH2 and cytochrome c as substrates by spectrophotometric based assay", "parameters": "species or system Sus scrofa"}, "[6]": {"species_on_record": "Sus scrofa", "assay": "Inhibition of porcine succinate-ubiquinone oxidoreductase at 10 uM using succinate and 2,6-dichloroindophenol as substrates by spectrophotometric based assay relative to control"}}}
{"smiles": "O=S(=O)(Nc1cc(Cl)c(Oc2c(Cl)cc(Cl)cc2Cl)c(Cl)c1)c1ccc(C(F)(F)F)cc1Cl", "values": [{"measurement": "IC50", "setting": "[1]", "result": 1080, "unit": "nM"}]}
{"smiles": "O=S(=O)(Nc1cc(Cl)c(Oc2c(Cl)cc(Cl)cc2Cl)c(Cl)c1)c1ccc(C(F)(F)F)cc1", "values": [{"measurement": "IC50", "setting": "[1]", "result": 530, "unit": "nM"}]}
{"smiles": "O=S(=O)(Nc1ccc(Oc2ccc(Cl)cc2Cl)c(Cl)c1)c1ccc(Cl)cc1Cl", "values": [{"measurement": "IC50", "setting": "[1]", "result": 1300, "unit": "nM"}]}
{"smiles": "O=S(=O)(Nc1cc(Cl)c(Oc2ccc(Cl)cc2Cl)c(Cl)c1)c1ccc(Cl)cc1Cl", "values": [{"measurement": "IC50", "setting": "[1]", "result": 1380, "unit": "nM"}]}
{"smiles": "O=S(=O)(Nc1ccc(Oc2ccc(Cl)cc2Cl)c(Cl)c1)c1ccc(C(F)(F)F)cc1Cl", "values": [{"measurement": "IC50", "setting": "[1]", "result": 1080, "unit": "nM"}]}
{"smiles": "O=S(=O)(Nc1cc(F)c(Oc2c(F)cc(F)cc2F)c(F)c1)c1ccccc1", "values": [{"measurement": "IC50", "setting": "[1]", "result": 6440, "unit": "nM"}, {"measurement": "IC50", "setting": "[2]", "result": 2020, "unit": "nM"}, {"measurement": "inhibition", "setting": "[3]", "result": 40, "unit": "%"}]}
{"smiles": "O=S(=O)(Nc1cc(Cl)c(Oc2ncc(C(F)(F)F)cc2Cl)c(Cl)c1)c1ccccc1", "values": [{"measurement": "inhibition", "setting": "[4]", "result": 9, "unit": "%"}, {"measurement": "IC50", "setting": "[1]", "result": "> 10000", "unit": "nM"}]}
{"smiles": "O=S(=O)(Nc1cc(Cl)c(Oc2c(Cl)cc(Cl)cc2Cl)c(Cl)c1)c1ccc(Cl)cc1", "values": [{"measurement": "IC50", "setting": "[1]", "result": 630, "unit": "nM"}]}
{"smiles": "O=S(=O)(Nc1ccc(Oc2ccccc2)cc1)c1ccccc1", "values": [{"measurement": "inhibition", "setting": "[4]", "result": 32, "unit": "%"}, {"measurement": "IC50", "setting": "[1]", "result": "> 10000", "unit": "nM"}]}
{"smiles": "O=S(=O)(Nc1cc(Cl)c(Oc2ccc(Cl)cc2Cl)c(Cl)c1)c1c(Cl)cc(Cl)cc1Cl", "values": [{"measurement": "IC50", "setting": "[1]", "result": 1120, "unit": "nM"}]}
{"smiles": "O=[N+]([O-])c1ccc(S(=O)(=O)Nc2cc(Cl)c(Oc3c(Cl)cc(Cl)cc3Cl)c(Cl)c2)cc1", "values": [{"measurement": "IC50", "setting": "[1]", "result": 1580, "unit": "nM"}]}
{"smiles": "O=S(=O)(Nc1cc(Cl)c(Oc2ccc(Cl)cc2Cl)c(Cl)c1)c1ccccc1", "values": [{"measurement": "IC50", "setting": "[1]", "result": 1100, "unit": "nM"}]}
{"smiles": "O=S(=O)(Nc1ccc(Oc2ccc(Cl)cc2Cl)cc1)c1ccc(C(F)(F)F)cc1Cl", "values": [{"measurement": "IC50", "setting": "[1]", "result": 1370, "unit": "nM"}]}
{"smiles": "CC(C)(C)c1ccc(S(=O)(=O)Nc2cc(Cl)c(Oc3c(Cl)cc(Cl)cc3Cl)c(Cl)c2)cc1", "values": [{"measurement": "IC50", "setting": "[1]", "result": 990, "unit": "nM"}]}
{"smiles": "Cc1cccc(S(=O)(=O)Nc2cc(Cl)c(Oc3c(Cl)cc(Cl)cc3Cl)c(Cl)c2)c1", "values": [{"measurement": "IC50", "setting": "[1]", "result": 380, "unit": "nM"}]}
{"smiles": "O=[N+]([O-])c1ccc(S(=O)(=O)Nc2ccc(Oc3ccc(Cl)cc3Cl)c(Cl)c2)cc1", "values": [{"measurement": "IC50", "setting": "[1]", "result": 2240, "unit": "nM"}]}
{"smiles": "O=S(=O)(Nc1ccc(Oc2ccc(Cl)cc2Cl)c(Cl)c1)c1c(Cl)cc(Cl)cc1Cl", "values": [{"measurement": "IC50", "setting": "[1]", "result": 1330, "unit": "nM"}]}
{"smiles": "CO/C=C(/C(=O)OC)c1ccccc1Oc1cc(Oc2ccccc2C#N)ncn1", "note": "[AZOXYSTROBIN]", "values": [{"measurement": "IC50", "setting": "[5]", "result": 530, "unit": "nM"}, {"measurement": "IC50", "setting": "[1]", "result": 290, "unit": "nM"}, {"measurement": "inhibition", "setting": "[6]", "result": 23, "unit": "%"}]}
{"smiles": "O=S(=O)(Nc1cc(Cl)c(Oc2c(Cl)cc(Cl)cc2Cl)c(Cl)c1)c1ccc(Cl)cc1Cl", "values": [{"measurement": "IC50", "setting": "[1]", "result": 1030, "unit": "nM"}]}
{"smiles": "Cc1cc(C)c(Oc2c(C)cc(NS(=O)(=O)c3ccccc3)cc2C)c(C)c1", "values": [{"measurement": "inhibition", "setting": "[4]", "result": 3, "unit": "%"}, {"measurement": "IC50", "setting": "[1]", "result": "> 10000", "unit": "nM"}]}
{"smiles": "O=S(=O)(Nc1ccc(Oc2ccc(Cl)cc2Cl)cc1)c1ccccc1", "values": [{"measurement": "IC50", "setting": "[1]", "result": 9280, "unit": "nM"}]}
{"smiles": "O=S(=O)(Nc1cc(Cl)c(Oc2c(Cl)cc(Cl)cc2Cl)c(Cl)c1)c1c(Cl)cc(Cl)cc1Cl", "values": [{"measurement": "IC50", "setting": "[1]", "result": 220, "unit": "nM"}]}
{"smiles": "O=S(=O)(Nc1cc(Cl)c(Oc2c(Cl)cc(Cl)cc2Cl)c(Cl)c1)c1ccc(F)cc1", "values": [{"measurement": "IC50", "setting": "[1]", "result": 830, "unit": "nM"}]}
{"smiles": "O=S(=O)(Nc1ccc(Oc2ccc(Cl)cc2Cl)cc1)c1ccc(Cl)cc1Cl", "values": [{"measurement": "IC50", "setting": "[1]", "result": 1620, "unit": "nM"}]}
{"smiles": "O=S(=O)(Nc1ccc(Oc2c(Cl)cc(Cl)cc2Cl)c(Cl)c1)c1ccccc1", "values": [{"measurement": "inhibition", "setting": "[4]", "result": 47, "unit": "%"}, {"measurement": "IC50", "setting": "[1]", "result": "> 10000", "unit": "nM"}]}
{"smiles": "CN(C)S(=O)(=O)n1cnc(S(=O)(=O)Nc2cc(Cl)c(Oc3c(Cl)cc(Cl)cc3Cl)c(Cl)c2)n1", "values": [{"measurement": "IC50", "setting": "[5]", "result": 35500, "unit": "nM"}, {"measurement": "IC50", "setting": "[1]", "result": 3200, "unit": "nM"}, {"measurement": "IC50", "setting": "[2]", "result": 500, "unit": "nM"}]}
{"smiles": "Cc1ccc(S(=O)(=O)Nc2cc(Cl)c(Oc3c(Cl)cc(Cl)cc3Cl)c(Cl)c2)cc1", "values": [{"measurement": "IC50", "setting": "[1]", "result": 1660, "unit": "nM"}]}
{"smiles": "O=S(=O)(Nc1ccc(Oc2ccc(Cl)cc2Cl)cc1)c1c(Cl)cc(Cl)cc1Cl", "values": [{"measurement": "IC50", "setting": "[1]", "result": 1490, "unit": "nM"}]}
{"smiles": "O=[N+]([O-])c1ccc(S(=O)(=O)Nc2ccc(Oc3ccc(Cl)cc3Cl)cc2)cc1", "values": [{"measurement": "IC50", "setting": "[1]", "result": 4860, "unit": "nM"}]}
{"smiles": "O=S(=O)(Nc1cc(Cl)c(Oc2ccc(Cl)cc2Cl)c(Cl)c1)c1ccc(C(F)(F)F)cc1Cl", "values": [{"measurement": "IC50", "setting": "[1]", "result": 1170, "unit": "nM"}]}
{"smiles": "O=S(=O)(Nc1cc(Cl)c(Oc2c(Cl)cc(Cl)cc2Cl)c(Cl)c1)c1ccccc1", "values": [{"measurement": "IC50", "setting": "[5]", "result": 3060, "unit": "nM"}, {"measurement": "IC50", "setting": "[1]", "result": 80, "unit": "nM"}, {"measurement": "IC50", "setting": "[2]", "result": 510, "unit": "nM"}]}
{"smiles": "CC(C)CC(C)c1sccc1NC(=O)c1cn(C)nc1C(F)(F)F", "note": "(centres undefined) [PENTHIOPYRAD]", "values": [{"measurement": "IC50", "setting": "[1]", "result": 1320, "unit": "nM"}, {"measurement": "IC50", "setting": "[2]", "result": 1190, "unit": "nM"}, {"measurement": "inhibition", "setting": "[3]", "result": "< 10", "unit": "%"}]}
{"smiles": "O=S(=O)(Nc1ccc(Oc2ccc(Cl)cc2Cl)c(Cl)c1)c1ccccc1", "values": [{"measurement": "IC50", "setting": "[1]", "result": 1980, "unit": "nM"}]}
{"smiles": "O=[N+]([O-])c1ccc(S(=O)(=O)Nc2cc(Cl)c(Oc3ccc(Cl)cc3Cl)c(Cl)c2)cc1", "values": [{"measurement": "IC50", "setting": "[1]", "result": 3570, "unit": "nM"}]}
{"smiles": "O=S(=O)(Nc1cc(Cl)c(Oc2ccc3ccccc3c2)c(Cl)c1)c1ccccc1", "values": [{"measurement": "inhibition", "setting": "[4]", "result": 48, "unit": "%"}, {"measurement": "IC50", "setting": "[1]", "result": "> 10000", "unit": "nM"}]}
{"smiles": "COc1ccc(S(=O)(=O)Nc2cc(Cl)c(Oc3c(Cl)cc(Cl)cc3Cl)c(Cl)c2)cc1", "values": [{"measurement": "IC50", "setting": "[1]", "result": 1870, "unit": "nM"}]}
{"smiles": "O=S(=O)(Nc1ccc(Oc2ccc3ccccc3c2)c(Cl)c1)c1ccccc1", "values": [{"measurement": "inhibition", "setting": "[4]", "result": 47, "unit": "%"}, {"measurement": "IC50", "setting": "[1]", "result": "> 10000", "unit": "nM"}]}
{"smiles": "Cc1ccccc1S(=O)(=O)Nc1cc(Cl)c(Oc2c(Cl)cc(Cl)cc2Cl)c(Cl)c1", "values": [{"measurement": "IC50", "setting": "[1]", "result": 800, "unit": "nM"}]}
